According to ChEMBL document CHEMBL1126439, “Synthesis, biochemical activity and behavioral effects of a series of 1,4,5,6-tetrahydropyrimidines as novel ligands for M1 receptors” (Bioorg Med Chem Lett, 1992):

Legend:
[1] = target: Muscarinic acetylcholine receptor
Description: Inhibition of [3H](R)-QNB binding to muscarinic receptor in rat brain membranes

Rattus norvegicus [2] = species: Rattus norvegicus; experiment: Ability to stimulate PI (phospho inositol) metabolism in rat cerebral cortex at 100 uM concentration; format: functional
Rattus norvegicus [3] = species: Rattus norvegicus; experiment: Compound was evaluated for its ability to stimulate PI (phospho inositol) metabolism in the rat hippocampal slices; format: functional, Hippocampus
Rattus norvegicus [4] = species: Rattus norvegicus; experiment: cells; details: Hippocampus
Description: Inhibition of PI (phospho inositol) response in rat hippocampus by the selective antagonist AF-DX 116 in the presence of 50 uM concentration of the compound

Rattus norvegicus [5] = species: Rattus norvegicus; experiment: Compound was evaluated for its ability to stimulate PI (phospho inositol) metabolism in the rat hippocampal slices, the 50% effective concentration was reported; format: functional; details: Hippocampus
Rattus norvegicus [6] = species: Rattus norvegicus; experiment: cells; details: Hippocampus; remark: listed apart in the source
Description: Inhibition of PI (phospho inositol) response in rat hippocampus by the selective antagonist pirenzepine in the presence of 50 uM concentration of the compound

Rattus norvegicus [7] = species: Rattus norvegicus; experiment: tissue or blood; details: Hippocampus
Description: Effective concentration to stimulate PI (phospho inositol) metabolism in the rat hippocampal slices

Molecule `Cl.O=C(OCc1ccccc1)C1CN=CNC1` (centres undefined) has an IC50 [1] of 2.6 µM and an Activity (Rattus norvegicus [2]) of 3.5.
`CC(=O)OC1CN=CNC1.Cl` (centres undefined) was tested, and the IC50 [1] was 32 µM, the Activity (Rattus norvegicus [2]) was 45 and the Stimulation (Rattus norvegicus [3]) was 70%.
`CC(C)OC(=O)C1CN=CNC1.Cl` (centres undefined) gave an Activity (Rattus norvegicus [2]) of 7.2.
`COC(=O)C1CN=CNC1.Cl` (centres undefined) gave an IC50 (Rattus norvegicus [4]) of 0.75 µM, an EC50 (Rattus norvegicus [5]) of 55 µM and an IC50 (Rattus norvegicus [6]) of 0.044 µM. For the same molecule, the Activity (Rattus norvegicus [2]) was 130 and the Stimulation (Rattus norvegicus [3]) was 240%.
Work on `CCOC(=O)C1CN=CNC1.Cl` (centres undefined) yielded an Activity (Rattus norvegicus [2]) of 150.
Molecule `C#CCOC(=O)C1CN=CNC1.Cl` (centres undefined) has an Activity (Rattus norvegicus [2]) of 230.
`CCCOC(=O)C1CN=CNC1.Cl` (centres undefined) was tested, and the Activity (Rattus norvegicus [2]) was 7.1.
Work on `CC(=O)OC1CN2CCC1CC2` (centres undefined) [ACECLIDINE] yielded an IC50 (Rattus norvegicus [4]) of 0.28 µM, an EC50 (Rattus norvegicus [7]) of 21 µM and an IC50 (Rattus norvegicus [6]) of 0.12 µM. For the same molecule, the Stimulation (Rattus norvegicus [3]) was 300%.
`C[N+](C)(C)CCOC(N)=O.[Cl-]` [CARBACHOL] was tested, and the Activity (Rattus norvegicus [2]) was 580.
